Test system: U2OS
Experiment: Growth inhibition of human U2OS cells after 3 days in presence of werner syndrome helicase inhibitor NSC 19630
Format: functional

Cc1oc2nc1-c1nc(co1)-c1nc(co1)-c1nc(co1)-c1nc(co1)-c1nc(co1)C1=NC(CS1)c1nc-2c(C)o1 (stereo unspecified) [TELOMESTATIN]
growth inhibition (GI): 70%
